Assay results from patent publication US10934278B2, “Compounds” (Autifony Therapeutics Limited, priority 2016, dated 2021).
Each block holds one compound with its values, some of them ahead of it.

Assays:
human Kv3.1 channels = target: T1, human Kv3.1 channels (Homo sapiens, UniProt P48547); experiment: hKv3.1 IonWorks Quattro whole-cell current potentiation assay; assay type: cell-based; details: for % current increase @ conc 1.56 μM: Kv3.1, 1.56 μM; for % current increase @ conc 3.12 μM: Kv3.1, 3.12 μM; for % current increase @ conc 12.5 μM: Kv3.1, 12.5 μM; for EC50: hKv3.1, -15 mV voltage step, read-out: pEC50 (Kv3.1) (converted)
T1 construct: expressed in transfected cells; host or cells: CHO/Gam/E1A-clone22 (CGE22) cells, CHO-K1-derived, transiently transduced with BacMam (pFBM/human Kv3.1, MOI 50)
T1 sequence (P48547 1-511): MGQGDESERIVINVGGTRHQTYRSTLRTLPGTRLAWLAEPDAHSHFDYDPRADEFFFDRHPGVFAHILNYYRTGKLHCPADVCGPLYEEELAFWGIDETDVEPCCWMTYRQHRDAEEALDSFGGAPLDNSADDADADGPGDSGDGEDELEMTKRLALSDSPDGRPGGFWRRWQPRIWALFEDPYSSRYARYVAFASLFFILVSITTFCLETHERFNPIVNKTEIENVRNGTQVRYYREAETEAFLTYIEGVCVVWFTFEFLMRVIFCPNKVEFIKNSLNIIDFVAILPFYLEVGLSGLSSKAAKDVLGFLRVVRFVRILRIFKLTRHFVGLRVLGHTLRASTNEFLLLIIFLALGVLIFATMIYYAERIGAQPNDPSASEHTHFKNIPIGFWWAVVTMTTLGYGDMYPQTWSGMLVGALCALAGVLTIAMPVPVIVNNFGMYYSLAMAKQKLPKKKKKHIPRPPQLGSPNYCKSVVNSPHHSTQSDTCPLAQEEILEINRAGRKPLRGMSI
Description: To assess compound effects on human Kv3.1 channels (hKv3.1), CHO/Gam/E1A-clone22 alias CGE22 cells were transduced using a hKv3.1 BacMam reagent. This cell line was designed to be an improved CHO-K1-based host for enhanced recombinant protein expression as compared to wild type CHO-K1. The cell line was generated following the transduction of CHO-K1 cells with a BacMam virus expressing the Adenovirus-Gam1 protein and selection with Geneticin-G418, to generate a stable cell line, CHO/Gam-A3. CHO/Gam-A3 cells were transfected with pCDNA3-E1A-Hygro, followed by hygromycin-B selection and FACS sorting to obtain single-cell clones. BacMam-Luciferase and BacMam-GFP viruses were then used in transient transduction studies to select the clone based on highest BacMam transduction and recombinant protein expression. CGE22 cells were cultured in the same medium used for the hKv3.2 CHO-K1 stable cell line with the addition of 300 ug/ml hygromycin-B and 300 ug/ml G418. All other conditions were identical to those for hKv3.2 CHO-K1 cells. The day before an experiment 10 million CGE22 cells were plated in a T175 culture flask and the hKv3.1 BacMam reagent (pFBM/human Kv3.1) was added (MOI of 50). Transduced cells were used 24 h later.
Cell Preparation for Ion Works Quattro™ Experiments The day of the experiment, cells were removed from the incubator and the culture medium removed. Cells were washed with 5 ml of Dulbecco's PBS (DPBS) calcium and magnesium free and detached by the addition of 3 ml Versene (Invitrogen, Italy) followed by a brief incubation at 37° C. for 5 minutes. The flask was tapped to dislodge cells and 10 ml of DPBS containing calcium and magnesium was added to prepare a cell suspension. The cell suspension was then placed into a 15 ml centrifuge tube and centrifuged for 2 min at 1200 rpm. After centrifugation, the supernatant was removed and the cell pellet re-suspended in 4 ml of DPBS containing calcium and magnesium using a 5 ml pipette to break up the pellet. Cell suspension volume was then corrected to give a cell concentration for the assay of approximately 3 million cells per ml.
Experiments were conducted at r.t. using lonWorks Quattro™ planar array electrophysiology technology (Molecular Devices Corp.) with PatchPlate™ PPC. Stimulation protocols and data acquisition were carried out using a microcomputer (Dell Pentium 4). Planar electrode hole resistances (Rp) were determined by applying a 10 mV voltage step across each well. These measurements were performed before cell addition. After cell addition and seal formation, a seal test was performed by applying a voltage step from −80 mV to −70 mV for 160 ms. Following this, amphotericin-B solution was added to the intracellular face of the electrode to achieve intracellular access. Cells were held at −70 mV. Leak subtraction was conducted in all experiments by applying 50 ms hyperpolarizing (10 mV) prepulses to evoke leak currents followed by a 20 ms period at the holding potential before test pulses. For hKv3.2 and hKv3.1 assays, from the holding potential of −70 mV, a first test pulse to −15 mV was applied for 100 ms and following a further 100 ms at −70 mV, a second pulse to 40 mV was applied for 50 ms. Cells were then maintained for a further 100 ms at −100 mV and then a voltage ramp from −100 mV to 40 mV was applied over 200 ms. For hKv3.3 assays, from the holding potential of −70 mV, a first test pulse to 0 mV was applied for 500 ms and following a further 100 ms at −70 mV, a second pulse to 40 mV was applied for 200 ms. These longer test pulses were used to study inactivation of hKv3.3 channels. Test pulses protocol may be performed in the absence (pre-read) and presence (post-read) of the test compound. Pre- and post-reads may be separated by the compound addition followed by a 3 minute incubation.
The intracellular solution contained the following (in mM): K-gluconate 100, KCl 54, MgCl2 3.2, HEPES 5, adjusted to pH 7.3 with KOH. […]

[1] = system: rat model of neuropathic pain; experiment: Neuropathic pain model, partial ligation of the sciatic nerve, paw withdrawal thresholds; assay type: in vivo; details: for Peak reversal of mechanical sensitivity: 3 h post-dose
Experimental: (§1) Subjects comprised male, Wistar Hanover rats, 6 animals per group (225±2 g).
(§2) Vehicle (12% Captisol®; 0.5% w/v HPMC and 0.1% w/v Tween-80; 5 ml/kg via the intraperitoneal route) was prepared using autoclaved deionized water not more than one week prior to use.
(§3) The control for the neuropathic pain model was lamotrigine, administered at 30 mg/kg via oral delivery. The control for the inflammatory pain model was diclofenac, administered at 30 mg/kg via oral delivery. Statistical analysis was performed using one-way ANOVA, and comparisons were performed with time-matched vehicle group using Tukey's HSD test wherein *p<0.05, **p<0.01, ***p<0.001.
Neuropathic pain was induced by partial ligation of the sciatic nerve. Briefly, the rats were anaesthetised (isoflurane/O2 inhalation), the left sciatic nerve exposed at mid-thigh level through a small incision and ⅓ to ½ of the nerve thickness tightly ligated within a 7.0 silk suture. The wound was closed with surgical glue. Animals were allowed to recover and tested 12-15 days following surgery.
Withdrawal thresholds were measured on both the ipsilateral (ligated) and contralateral (non-ligated) paws, prior to (predose) and then up to 24 h following drug or vehicle administration.
Pre-dose behavioural measurements were obtained by measuring paw withdrawals 14 days following nerve ligation; before the initiation of drug treatment. Following treatment, further readings were taken at 1, 3, 6 and 24 hour after administration.
(§4) Mechanical hyperalgesia was examined in a model of neuropathic pain by measuring paw withdrawal thresholds (PWT) to increasing mechanical force applied to the dorsal surface of the rat paw using an Analgesymeter (Ugo-Basile, Milan) equipped with a wedge-shaped probe (area 1.75 mm^2). Cut-off was set at 250 g and the end-point was taken as withdrawal of the hind paw. Both ipsilateral and contralateral paw withdrawal readings were taken.
Cold sensitivity can be assessed using a commercially available cold-plate (Ugo Basile, Milan). The cold plate is allowed to stabilize for 5 minutes at the set temperature prior to testing. Paw withdrawal latencies (PWL) are determined with the cold-plate set at 10° C. The animals are lightly restrained and each hind paw in turn placed onto the surface of the cold-plate. The end point is taken as the withdrawal of the paw and recorded as the withdrawal latency for the ipsilateral and the contralateral paw. A maximum cut-off of 30 seconds is used for each paw.
(§5) Data were expressed as withdrawal threshold (g) and percentage reversals calculated according to the following formula: […]

[2] = system: rat model of persistent inflammatory pain; experiment: Persistent inflammatory pain model (FCA), paw withdrawal thresholds; assay type: in vivo
Experimental: as §1, §2, §3
Mechanical hyperalgesia was examined in a model of persistent inflammatory pain.
The hyperalgesia was induced by an intraplantar injection (25 μl) of Freund's Complete Adjuvant (FCA) into the left hind paw.
To assess the effect of the test compound, paw withdrawal thresholds were measured on both the ipsilateral (FCA-injected) and contralateral (non-injected) paws, prior to (naïve) and 24 h following FCA injection (predose), and then at 1, 3, 6 and 24 h after drug or vehicle administration.
as §4, §5

% current increase @ conc 1.56 μM (human Kv3.1 channels): 25%
% current increase @ conc 3.12 μM (human Kv3.1 channels): 60%
% current increase @ conc 12.5 μM (human Kv3.1 channels): 105%
EC50 (human Kv3.1 channels): 3.55 µM
Structure (SMILES): Cc1ccc(O[C@H]2C[C@H](N3C(=O)NC(C)(C)C3=O)C2)c2c1OCC21CC1

% current increase @ conc 1.56 μM (human Kv3.1 channels): 7%
% current increase @ conc 3.12 μM (human Kv3.1 channels): 10%
% current increase @ conc 12.5 μM (human Kv3.1 channels): 12%
EC50 (human Kv3.1 channels): > 50.1 µM
Structure (SMILES): Cc1ccc(O[C@@H]2CC[C@@H](N3C(=O)NC(C)(C)C3=O)C2)c2c1OCC21CC1 (racemic)

Structure (SMILES): Cc1ccc(Oc2ncc(N3C(=O)NC(C)(C)C3=O)cn2)c2c1OCC21CC1 [Compound X, 5,5-dimethyl-3-[2-(7-methylspiro[2H-benzofuran-3,1′-cyclopropane]-4-yl)oxypyrimidin-5-yl]imidazolidine-2,4-dione]
Peak reversal of mechanical sensitivity ([1]; 10 mg/kg i.p.): 31%
Peak reversal of mechanical sensitivity ([1]; 30 mg/kg i.p.): 73%
Peak reversal of mechanical sensitivity ([1]; 60 mg/kg i.p.): 81%
effect on mechanical sensitivity, ipsilateral paw ([1]; 10, 30, 60 mg/kg i.p.): dose-related reversal of mechanical sensitivity
changes in normal behaviour ([1]; administered acutely, neuropathic and inflammatory pain models): without causing significant changes in normal behaviour
contralateral paw withdrawal thresholds to mechanical pressure ([1]; rat, in vivo): significant increases
duration of efficacy ([1]; rat, in vivo): up to 6 h
time of maximal efficacy after dosing ([1]; rat, in vivo): 1 to 3 h
effect on cold sensitivity, ipsilateral paw ([1]; results not shown): marked, dose-related reversal of cold sensitivity
general behaviour observation ([1]; treated rats): induced flaccidity in some of the treated rats
Peak reversal of mechanical sensitivity ([2]; 10 mg/kg i.p., 3 h post-dose): 64%
Peak reversal of mechanical sensitivity ([2]; 30 mg/kg i.p., 1 h post-dose): 74%
Peak reversal of mechanical sensitivity ([2]; 60 mg/kg i.p., 1 h post-dose): 92%
reversal of mechanical sensitivity ([2]; 60 mg/kg i.p., 6 h post-dose): 45%
effect on mechanical sensitivity ([2]; 10, 30, 60 mg/kg i.p.): dose-related reversal of mechanical sensitivity
time of peak reversal post-dose ([2]; rat, in vivo): 1 to 3 h

Structure (SMILES): O=C(O)Cc1ccccc1Nc1c(Cl)cccc1Cl [diclofenac]
peak reversals in mechanical sensitivity ([2]; positive control, 30 mg/kg oral, 1 h post-dose): 64%

Structure (SMILES): Nc1nnc(-c2cccc(Cl)c2Cl)c(N)n1 [lamotrigine]
Peak reversal of mechanical sensitivity ([1]; positive control, 30 mg/kg oral): 67%
